The numbers were not newly measured in US12715832B2, “Co-crystal of coenzyme QH and nicotinamide, preparation method therefor and use thereof” (COCRYSTAL TECHNOLOGY (JIAXING) CO., LTD, priority 2021, dated 2026), which cites them from elsewhere.

The conditions of this data set: in the air at 25° C. for 28 days.

Turning to `COc1c(O)c(C)c(C/C=C(\C)CC/C=C(\C)CC/C=C(\C)CC/C=C(\C)CC/C=C(\C)CC/C=C(\C)CC/C=C(\C)CC/C=C(\C)CC/C=C(\C)CCC=C(C)C)c(O)c1OC` [stable polymorph of coenzyme QH, coenzyme QH], the “coenzyme QH oxidized” value is listed as “about 6%”.
